# Test results taken from doi:10.1101/2025.08.18.25333496, “A Phase 0 Window of Opportunity Trial of LB100, a Protein Phosphatase 2A Inhibitor, in Patients with Recurrent Gliomas” (medRxiv, 2025).
# Where two headings read alike, the source gives them in different places.
# Experiments:
# [1] = system: PP2A; design: method as in Lixte Biotechnology, Investigators Brochure, unpublished; details: mice, brain region with intact BBB; ref Lixte Biotechnology, Investigators Brochure, unpublished; cited from earlier work
# [2] = design: method as in PMID 28039265; details: dose level above the established safe dose; cited from earlier work
# [3] = design: method as in Lixte Biotechnology, Investigators Brochure, unpublished; details: ref Lixte Biotechnology, Investigators Brochure, unpublished, cited from earlier work
# [4] = human, in vivo
# Protocol: (§1) In this current trial, a single dose of LB100 was infused over two hours (+/− 15 minutes) starting two to four hours before surgery.
# (§2) Blood and plasma samples for PK measurements were also performed on all participants. Samples were collected at the following time points: 1) Pre-dose; 2) End of infusion (2 hours post-start); 3) 30 minutes post LB100 infusion completion; 4) 1 hour post LB-100 infusion completion; 5) 2 hours post LB100 infusion completion; 6) 4 hours post LB100 infusion completion; 7) 8 hours post LB100 infusion completion.
# (§3) LB100 concentration in clinical PK samples (plasma and tumor tissue), was quantified using a validated and robust LC-MS/MS assay developed at the NCI that used LB-105 as an internal standard. This analysis was performed blinded to tumor type. Plasma samples were pre-treated with 50 mM NaOH and tissue samples were homogenized in acetonitrile at a concentration of 100 mg/mL Briefly, samples were mixed with aqueous 10 mM triethylamine (TEA) containing internal standard followed by protein precipitation with 0.5% TEA in acetonitrile. Samples were processed alongside calibration and quality control (QC) standards, ranging from 2–1000 ng/mL (~7.5–3700 nM) and 3–10,000 pg/mg (~1.2–3700 nM) for plasma and brain tissue, respectively. […] The analyte and internal standard were chromatographically separated using a Waters Acquity UPLC BEH C18 (1.7-μm, 2.1×50mm) on a Waters Acuity UPLC system (Waters Corp., Milford, MA). A gradient mobile phase consisting of 5 mM ammonium bicarbonate (aq) and acetronitrile was flowed at a rate of 0.5 to 1 mL/min; the injection volume was 5 uL. After chromatographic separation, the compounds were eluted and detected using a AbSciex QTrap 5500 tandem mass spectrometer in positive ion electrospray mode; MRM transitions were m/z 269.1 → 101.0 and 283.2 → 115.1 for LB-100 and LB-105, respectively.
# (§4) Plasma PK was analyzed via a non-compartmental approach using Phoenix WinNonlin v8.3 (Certara Corp, Cary, NC) that was validated per FDA 21CFR Part 11 Regulations. The maximum plasma concentration (Cmax) and the time of Cmax (Tmax) were reported as observed values. A rate constant of the terminal phase, λz, was calculated from the concentration-time curve using uniformly weighted least-squares as the estimation procedure and acceptance criteria of i) r^2 > 0, ii) includes >3-time points. […] Estimated pharmacokinetic parameters included half-life (t1/2; inverse of λz), volume of distribution (Vd; dose divided by product of λz and AUCINF), and clearance (CL; dose divided by AUCINF). Drug concentrations in brain tissue samples were reported and % brain penetrance was approximated via the ratio of brain tissue drug concentration to plasma drug concentrations from matched timepoints post-tissue collection.
# [5] = clinical; design: species or system human; details: in vivo
# Protocol: Glioma tissue sampling to detect and quantify LB100 was performed post-dose in each patient, with resection time points from the end of the LB100 infusion recorded. After ensuring adequate diagnostic tissue, remaining tissue was used for PK analysis. Briefly, removed tissues were rinsed with saline immediately (to remove LB100-containing blood and avoid falsely elevated LB100 measurements), then divided, flash-frozen, and stored at −80°C for future batch analysis.
# This analysis was performed blinded to tumor type.
# [6] = target: protein phosphatase 2A (PP2A); details: cited from earlier work
# [7] = in vivo
# Protocol: After LB100 infusion and craniotomy all patients were evaluated in person 1–3 days following surgery and followed for at least 30 days after infusion of LB100 for toxicities and adverse events (AEs). All adverse events, including clinically significant abnormal findings on laboratory evaluations, regardless of severity, were followed until return to baseline or stabilization of event. Adverse events were documented from the first study intervention (study day 1) through the final safety visit (study day 30). Beyond 30 days only adverse events which were serious and related to the study intervention were recorded. The descriptions and grading scales found in the revised NCI Common Terminology Criteria for Adverse Events (CTCAE) version 5.0 were utilized for AE reporting.
# During the first post-operative week after infusion with LB100, an EKG, renal function tests and liver function tests were performed. Two to three weeks following discharge from the hospital, all patients were given a physical exam and additional blood testing. At approximately 30 days post-craniotomy patients were questioned to determine whether any new AEs had occurred, and any ongoing AEs were followed up on. Prior to removal from the study, at approximately 30 days following drug infusion, all subjects completed a final safety evaluation.
# [8] = clinical; details: human, in vivo
# Protocol: as §1, §2, §3, §4
# [9] = one-time administration equivalent to human maximum tolerated dose
structure (smiles),measurement,setting,value
CN1CCN(C(=O)C2C(C(=O)O)[C@H]3CC[C@@H]2O3)CC1 (some centres unmarked) [LB100],PP2A enzymatic activity in the lateral habenula,[1],significantly decrease PP2A enzymatic activity
same,patients with grade 3 increases in creatinine clearance,[2],2 of 4
same,mean Cmax in plasma,[3]; animal studies,1110~3664 ng/ml
same,mean Cmax in the brain,[3]; animal studies,17.4~43.5 ng/kg
same,animals with LB100 detected in implanted tumor,[3]; [9],1 of 3
same,animals with LB100 detected in normal brain and liver,[3]; [9],2 of 3
same,T1/2,[4],1.27 (13%) hr
same,"plasma concentration of LB100 at the time of biopsy, range",[4],30.81 to 132.26 nM
same,% Brain Pen (ratio of brain:plasma concentrations),[5]; human,0.31% (159%)
same,Kp,[5]; human,0.0031
same,concentration at 5.68 h,[5]; human,0.51 ng/g
same,"concentration of LB100 in tumor tissue, range",[5]; human,0 to 0.67 nM
same,"percent of drug penetration into the brain, range",[5]; human,0% to 1.04%
same,difference in drug levels between contrast and non-contrast regions of tumor,[5],no significant difference in drug levels
same,IC50,"[6]; in glial cell lines, read-out: IC50 of PP2A",200 to 400 nM
same,IC50,"[6]; previously established, read-out: minimum IC50 targeting protein phosphatase 2A",200 nM
same,AEs related to LB100,"[7]; human, 30 days",No AEs were thought to be related to LB100
same,total number of AEs,"[7]; human, 30 days",30
same,AEs rated as serious (grade 3 or 4),[7],Four
same,Vd,[8],21.7 L
same,clearance,[8],195 mL/min
same,AUC(0-inf),[8]; AUCinf,414 ng·h/mL
same,Cmax,[8],146 ng/mL
same,Cmax,[8]; range,95 to 179 ng/mL
same,half-life,[8]; T1/2,72 min
same,Tmax,[8]; TMAX,2.1 h
same,Tmax,"[8]; Tmax, range",2.07 to 2.63 h
same,AUC(0-inf),"[8]; plasma drug exposure (AUCINF), range",325 to 468 ng·h/mL
same,half-life,"[8]; plasma half-life (T1/2), range",65.4 to 87.6 min
